Source: US20060009431A1, “Nitrosated and nitrosylated compounds, compositions and methods use” (NitroMed, Inc., priority 2003, published 2006)
Read-outs that look alike come from different tables or passages of the source.

Tests used:
[1] = tested on: human coronary artery smooth muscle cells (CASMC); assay: Vascular smooth muscle cell (SMC) antiproliferation assay; type: cell-based; conditions: viable cell count (Trypan Blue exclusion) ~68 hours after compound addition
Description: Suppression of Proliferation of Human Coronary Artery Smooth Muscle Cells (CASMC)
Vascular Smooth Muscle Cell (SMC) Antiproliferation Assay
The cells used in this assay were human coronary artery smooth muscle cells (CASMC) supplied by Clonetics Corp. (San Diego, Calif.). They were maintained in SmGM-2 growth medium (Clonetics Corp.), which consisted of modified MCDB 131 medium supplemented with 5% (v/v) fetal bovine serum (FBS), 0.5 ng/mL human recombinant epidermal growth factor (EGF), 2 ng/mL human recombinant fibroblast growth factor (FGF), 5 μg/mL bovine insulin, 50 μg/mL gentamicin sulfate, and 50 ng/mL amphotericin B under humidified 95% air-5% CO2 at 37° C. Cells were used for experiments up to about 17 cumulative population doublings (i.e., passage 9); at this age they still stained positive for smooth muscle actin, a protein marker for smooth muscle cells.
For the SMC antiproliferation assay, the cells were seeded at 3×10^4 viable cells in 2 mL of SmGM-2 medium per well of a Corning 24 tissue culture well plate (Corning, N.Y.). Stock solutions of the test compounds were prepared just prior to addition to the cells by dissolving in DMSO at a concentration of 1000 times the highest concentration to be assayed. This stock solution was diluted, as required, with DMSO to lower concentrations. On the same day the cells were seeded, but after they had attached and spread out (about 3 hours), each test compound in varying concentrations (2 μL of the diluted stock solutions) was added to four replicate wells (n=4) for each concentration. Control cultures received 2 μL of DMSO per well (n=4). On the following morning, the cultures were examined microscopically and their condition recorded. On the third day after test compound addition (˜68 hours), the cultures were examined microscopically again and the viable cells counted with an hemacytometer following trypsinization with 0.25% trypsin-1 mM EDTA. Trypan Blue dye exclusion was used to discriminate between viable and dead cells. The results were usually presented as % of the control viable cell count (mean±SEM) and were used to determine the IC50 for the inhibition of proliferation of vascular smooth muscle cells.

[2] = n=4, read-out: IC 50 for the inhibition of proliferation of vascular smooth muscle cells, Non-nitrosated and/or Non-nitrosylated Compound
[3] = Homo sapiens, n=4, read-out: IC 50 for the inhibition of proliferation of vascular smooth muscle cells, Nitrosated and/or Nitrosylated Compound

Compound | IC50 [1, 2] | melting point | IC50 [1, 3]
CC(C)(S)CNC(=O)COc1ccc2c(c1)CC[C@@H]1[C@@H]2CC[C@]2(C)[C@@H](O)CC[C@@H]12 [Example 48, 2-((1S,11S,14S,15S,10R)-14-hydroxy-15-methyltetracyclo(8.7.0.0<2,7>0.0<11,15>)heptadeca-2,4,6-trien-5-yloxy)-N-(2-methyl-2-sulfanylpropyl)acetamide] | 11 µM | 50 to 52 °C | –
C[C@]12CC[C@@H]3c4ccc(O)cc4/C(=N/OCC(=O)OCCC4(SN=O)C5CC6CC(C5)CC4C6)C[C@H]3[C@@H]1CC[C@@H]2O (stereo partly drawn) [Example 37, 2-(2-(Nitrosothio)adamantan-2-yl)ethyl 2-(((1S,11S,14S,15S,10R)-5,14-dihydroxy-15-methyltetracyclo(8.7.0.0<2,7>0.0<11,15>)heptadeca-2,4,6-trien-8-ylidene)azamethoxy)acetate] | – | 75 to 80 °C | 1.4 to 2 µM
C[C@]12CC[C@@H]3c4ccc(OC(=O)CCC(=O)OCCC5(S)C6CC7CC(C6)CC5C7)cc4CC[C@H]3[C@@H]1CC[C@@H]2O (stereo partly drawn) [Example 30, (1S,11S,14S,15S,10R)-14-Hydroxy-15-methyltetracyclo(8.7.0.0<2,7>0.0<11,15>)heptadeca-2,4,6-trien-5-yl 2-(2-sulfanyladamantan-2-yl)ethyl butane-1,4-dioate] | 4 µM | 133 to 136 °C | –
C[C@]12CC[C@@H]3c4ccc(OC(=O)CCC(=O)O[C@H]5CO[C@H]6[C@@H]5OC[C@H]6O[N+](=O)[O-])cc4CC[C@H]3[C@@H]1CC[C@@H]2O [Example 32b, (1S,11S,14S,15S,10R)-14-Hydroxy-15-methyltetracyclo(8.7.0.0<2,7>0.0<11,15>)heptadeca-2,4,6-trien-5-yl(1S,2S,5S,6R)-6-(nitrooxy)-4,8-dioxabicyclo(3.3.0)oct-2-yl butane-1,4-dioate] | – | 163 to 165 °C | 8 µM
C[C@]12CC[C@@H]3c4ccc(O)cc4/C(=N/OCC(=O)OCCC4(S)C5CC6CC(C5)CC4C6)C[C@H]3[C@@H]1CC[C@@H]2O (stereo partly drawn) [Example 46, 2-(2-sulfanyladamantan-2-yl)ethyl 2-(((1S,11S,14S,15S,10R)-5,14-dihydroxy-15-methyltetracyclo(8.7.0.0<2,7>0.0<11,15>)heptadeca-2,4,6-trien-8-ylidene)azamethoxy)acetate] | 5 to 12 µM | 85 to 90 °C | –
C[C@]12CC[C@@H]3c4ccc(OCC(=O)OCCC5(S)C6CC7CC(C6)CC5C7)cc4CC[C@H]3[C@@H]1CC[C@@H]2O (stereo partly drawn) [Example 45, 2-(2-Sulfanyladamantan-2-yl)ethyl 2-((1S,11S,14S,15S,10R)-14-hydroxy-15-methyltetracyclo(8.7.0.0<2,7>0.0<11,15>)heptadeca-2,4,6-trien-5-yloxy)acetate] | 8 µM | 78 to 80 °C | –
CC(C)(S)CNC(=O)CO/N=C1\C[C@@H]2[C@H](CC[C@]3(C)[C@@H](O)CC[C@@H]23)c2ccc(O)cc21 [Example 47, 2-(((1S,11S,14S,15S,10R)-5,14-dihydroxy-15-methyltetracyclo(8.7.0.0<2,7>0.0<11,15>)heptadeca-2,4,6-trien-8-ylidene)azamethoxy)-N-(2-methyl-2-sulfanylpropyl)acetamide] | > 80 µM | 87 to 90 °C | –
C[C@]12CC[C@@H]3c4ccc(OC(=O)c5ccccc5)cc4CC[C@H]3[C@@H]1CC[C@@H]2OC(=O)CCC(=O)O[C@H]1CO[C@H]2[C@@H]1OC[C@H]2O [Example 57, (1S,11S,14S,15S,10R)-15-Methyl-5-phenylcarbonyloxytetracyclo(8.7.0.0<2,7>0.0<11,15>)heptadeca-2,4,6-trien-14-yl(1S,2S,5R,6R)-6-hydroxy-4,8-dioxabicyclo(3.3.0)oct-2-yl butane-1,4-dioate] | > 80 µM | 136 to 137 °C | –
CC(C)(CNC(=O)CO/N=C1\C[C@@H]2[C@H](CC[C@]3(C)[C@@H](O)CC[C@@H]23)c2ccc(O)cc21)SN=O [Example 41, 2-(((1S,11S,14S,15S,10R)-5,14-dihydroxy-15-methyltetracyclo(8.7.0.0<2,7>0.0<11,15>)heptadeca-2,4,6-trien-8-ylidene)azamethoxy)-N-(2-methyl-2-(nitrosothio)propyl)acetamide] | – | 145 to 150 °C | 10 µM
